Measured values taken from US20090175842A1, “DIETARY ANTI-BACTERIAL COMPOSITIONS” (priority 2006, published 2009).

Tested on: H. pylori clinical isolate 1735 (HP-1735)
Assay: Antibacterial sensitivity / zone of growth inhibition by well/disc diffusion method
Type: cell-based, Helicobacter pylori
Conditions: for zone of growth inhibition: clinical isolate 1735; for Antibiotic susceptibility (disc diffusion): strain HP-1735
[1] = antibiotic concentration 30 µg/disk

| Structure (SMILES) | zone of growth inhibition compared with dietary antibacterial composition (H. pylori clinical isolate 1735) | zone of growth inhibition (antibiotic concentration 15 µg/disk) | Antibiotic susceptibility (disc diffusion) (clarithromycin and tetracycline criterion) | zone of growth inhibition [1] | Antibiotic susceptibility (disc diffusion) (amoxicillin criterion) |
| --- | --- | --- | --- | --- | --- |
| CC[C@H]1OC(=O)[C@H](C)[C@@H](O[C@H]2C[C@@](C)(OC)[C@@H](O)[C@H](C)O2)[C@H](C)[C@@H](O[C@@H]2O[C@H](C)C[C@H](N(C)C)[C@H]2O)[C@](C)(OC)C[C@@H](C)C(=O)[C@H](C)[C@@H](O)[C@]1(C)O [CLA, Clarithromycin] | less zone of growth inhibition | 8 mm | resistant (≦30 mm for clarithromycin and tetracycline) |  |  |
| CN(C)[C@@H]1C(O)=C(C(N)=O)C(=O)[C@@]2(O)C(O)=C3C(=O)c4c(O)cccc4[C@@](C)(O)[C@H]3C[C@@H]12 [TET, Tetracycline] |  |  |  | 45 mm |  |
| CC1(C)S[C@@H]2[C@H](NC(=O)[C@H](N)c3ccc(O)cc3)C(=O)N2[C@H]1C(=O)O [AMO, Amoxicillin] |  |  |  | 50 mm | sensitive |
